The source of these data is patent US20120245137A1 (Zalicus Pharmaceuticals Ltd., priority 2009, published 2012).

Like-named read-outs stand apart in the source and are kept apart here.

What all share (assay type): cell-based
The target in assay [1] is T-type calcium channel (Homo sapiens, UniProt O43497). In words: T-type channel blocking, FLIPR data (Table 6). To be noted: CAv3.1. From the text: (§1) Another method, high-throughput spectrophotometric assay, utilizes loading of the cell lines with a fluorescent dye sensitive to intracellular calcium concentration and subsequent examination of the effects of compounds on the ability of depolarization by potassium chloride or other means to alter intracellular calcium levels.

Assay [2] addresses T-type calcium channel (Homo sapiens, UniProt O95180). In words: T-type channel blocking, FLIPR data (Table 6). The note with it: for CAv3.2 IC50 Ratio closed/inact.: CAv3.2, ratio closed/inactivated IC50.
Excerpt: as §1

Assay [3] has as its target Human Cav 2.2 channels (Homo sapiens, UniProt Q00975). In words: Fluorescent assay for CaV2.2 channels using potassium depolarization (VIPR/FLIPR). To be noted: FLIPR data; for CAv2.2 IC50 Ratio closed/inact.: ratio closed/inactivated IC50. Summed up:
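HEK293 cells stably expressing human Cav2.2 with α2δ and β subunits plus Kir2.3 were loaded with fluo-4 and incubated 30 min at 25 °C with compound in 4, 12, 25 or 30 mM potassium buffer. Channels were opened with 70 mM potassium (final) and calcium influx was read by fluorescence (Ex 480/Em 535 nm).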

Assay [4] deals with CAv1.2 (Homo sapiens, UniProt Q13936). In words: FLIPR data, CAv1.2 channel blocking (Table 6). To be noted: for CAv1.2 IC50 Ratio closed/inact.: ratio closed/inactivated IC50.
[5] abbreviates: CAv3.2, closed state, read-out: CAv3.2 IC50 Closed.
The mark [6] stands for this setting: CAv3.2, inactivated state, read-out: CAv3.2 IC50 Inact.
[7] abbreviates: closed state, read-out: CAv2.2 IC50 Closed.
[8] abbreviates: inactivated state, read-out: CAv2.2 IC50 Inact.
[9] abbreviates: closed state, read-out: CAv1.2 IC50 Closed.
Setting [10] is: inactivated state, read-out: CAv1.2 IC50 Inact.

CAv1.2, sequence (Q13936 whole entry): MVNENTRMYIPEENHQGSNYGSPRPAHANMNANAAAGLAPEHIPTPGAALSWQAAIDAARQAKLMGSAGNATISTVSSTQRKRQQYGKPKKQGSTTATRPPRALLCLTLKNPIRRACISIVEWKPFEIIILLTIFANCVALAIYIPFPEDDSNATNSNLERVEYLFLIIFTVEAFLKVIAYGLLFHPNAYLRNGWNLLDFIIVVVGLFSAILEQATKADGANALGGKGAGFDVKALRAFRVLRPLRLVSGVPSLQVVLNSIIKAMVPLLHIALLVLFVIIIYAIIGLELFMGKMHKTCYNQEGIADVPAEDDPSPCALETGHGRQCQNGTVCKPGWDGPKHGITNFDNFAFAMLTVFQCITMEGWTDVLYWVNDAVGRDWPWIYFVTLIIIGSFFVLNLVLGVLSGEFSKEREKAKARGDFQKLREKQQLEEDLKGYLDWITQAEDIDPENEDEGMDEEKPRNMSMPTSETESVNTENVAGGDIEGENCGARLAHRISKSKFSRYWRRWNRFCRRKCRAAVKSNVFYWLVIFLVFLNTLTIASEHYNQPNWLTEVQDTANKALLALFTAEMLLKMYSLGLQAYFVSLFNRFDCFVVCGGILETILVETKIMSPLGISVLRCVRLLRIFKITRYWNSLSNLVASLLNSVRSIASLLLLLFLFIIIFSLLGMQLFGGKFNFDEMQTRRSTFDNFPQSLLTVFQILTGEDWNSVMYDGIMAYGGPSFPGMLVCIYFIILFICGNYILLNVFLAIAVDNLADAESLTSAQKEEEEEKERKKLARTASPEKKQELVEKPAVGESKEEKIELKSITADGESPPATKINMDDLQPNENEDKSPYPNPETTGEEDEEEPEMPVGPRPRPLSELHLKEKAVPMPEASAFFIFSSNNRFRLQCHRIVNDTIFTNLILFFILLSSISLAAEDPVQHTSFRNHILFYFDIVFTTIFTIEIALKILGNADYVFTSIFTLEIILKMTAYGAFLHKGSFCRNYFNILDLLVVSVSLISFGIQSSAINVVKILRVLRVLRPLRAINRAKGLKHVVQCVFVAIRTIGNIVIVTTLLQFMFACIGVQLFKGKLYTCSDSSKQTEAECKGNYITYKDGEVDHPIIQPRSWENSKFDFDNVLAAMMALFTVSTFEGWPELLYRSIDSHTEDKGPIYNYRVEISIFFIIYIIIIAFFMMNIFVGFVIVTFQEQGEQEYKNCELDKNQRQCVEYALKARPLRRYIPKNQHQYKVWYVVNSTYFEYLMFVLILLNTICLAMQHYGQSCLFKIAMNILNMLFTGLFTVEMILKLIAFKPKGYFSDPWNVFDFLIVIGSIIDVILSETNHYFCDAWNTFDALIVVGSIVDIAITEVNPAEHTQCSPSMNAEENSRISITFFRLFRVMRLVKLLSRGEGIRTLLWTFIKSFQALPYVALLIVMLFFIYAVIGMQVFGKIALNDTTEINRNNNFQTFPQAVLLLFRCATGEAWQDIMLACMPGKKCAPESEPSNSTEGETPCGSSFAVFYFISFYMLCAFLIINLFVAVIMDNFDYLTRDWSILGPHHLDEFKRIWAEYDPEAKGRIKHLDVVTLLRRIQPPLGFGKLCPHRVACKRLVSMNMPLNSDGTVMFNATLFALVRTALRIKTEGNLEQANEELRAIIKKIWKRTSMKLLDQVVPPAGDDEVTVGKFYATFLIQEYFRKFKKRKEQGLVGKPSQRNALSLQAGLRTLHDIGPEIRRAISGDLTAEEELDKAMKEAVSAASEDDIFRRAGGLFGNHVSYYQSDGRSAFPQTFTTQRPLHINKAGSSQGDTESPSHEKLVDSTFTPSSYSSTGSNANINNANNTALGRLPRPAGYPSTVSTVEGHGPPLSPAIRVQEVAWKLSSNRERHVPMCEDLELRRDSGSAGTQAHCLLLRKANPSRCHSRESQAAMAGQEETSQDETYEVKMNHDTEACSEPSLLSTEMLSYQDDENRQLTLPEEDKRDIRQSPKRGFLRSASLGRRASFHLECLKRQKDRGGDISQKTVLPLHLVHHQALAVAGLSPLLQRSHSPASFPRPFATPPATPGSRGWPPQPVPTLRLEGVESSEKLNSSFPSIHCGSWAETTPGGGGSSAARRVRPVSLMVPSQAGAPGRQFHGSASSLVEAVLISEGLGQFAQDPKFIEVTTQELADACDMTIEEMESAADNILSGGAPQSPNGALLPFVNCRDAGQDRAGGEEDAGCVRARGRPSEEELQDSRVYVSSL
CAv1.2, sequence (P54289 25-1103 partner): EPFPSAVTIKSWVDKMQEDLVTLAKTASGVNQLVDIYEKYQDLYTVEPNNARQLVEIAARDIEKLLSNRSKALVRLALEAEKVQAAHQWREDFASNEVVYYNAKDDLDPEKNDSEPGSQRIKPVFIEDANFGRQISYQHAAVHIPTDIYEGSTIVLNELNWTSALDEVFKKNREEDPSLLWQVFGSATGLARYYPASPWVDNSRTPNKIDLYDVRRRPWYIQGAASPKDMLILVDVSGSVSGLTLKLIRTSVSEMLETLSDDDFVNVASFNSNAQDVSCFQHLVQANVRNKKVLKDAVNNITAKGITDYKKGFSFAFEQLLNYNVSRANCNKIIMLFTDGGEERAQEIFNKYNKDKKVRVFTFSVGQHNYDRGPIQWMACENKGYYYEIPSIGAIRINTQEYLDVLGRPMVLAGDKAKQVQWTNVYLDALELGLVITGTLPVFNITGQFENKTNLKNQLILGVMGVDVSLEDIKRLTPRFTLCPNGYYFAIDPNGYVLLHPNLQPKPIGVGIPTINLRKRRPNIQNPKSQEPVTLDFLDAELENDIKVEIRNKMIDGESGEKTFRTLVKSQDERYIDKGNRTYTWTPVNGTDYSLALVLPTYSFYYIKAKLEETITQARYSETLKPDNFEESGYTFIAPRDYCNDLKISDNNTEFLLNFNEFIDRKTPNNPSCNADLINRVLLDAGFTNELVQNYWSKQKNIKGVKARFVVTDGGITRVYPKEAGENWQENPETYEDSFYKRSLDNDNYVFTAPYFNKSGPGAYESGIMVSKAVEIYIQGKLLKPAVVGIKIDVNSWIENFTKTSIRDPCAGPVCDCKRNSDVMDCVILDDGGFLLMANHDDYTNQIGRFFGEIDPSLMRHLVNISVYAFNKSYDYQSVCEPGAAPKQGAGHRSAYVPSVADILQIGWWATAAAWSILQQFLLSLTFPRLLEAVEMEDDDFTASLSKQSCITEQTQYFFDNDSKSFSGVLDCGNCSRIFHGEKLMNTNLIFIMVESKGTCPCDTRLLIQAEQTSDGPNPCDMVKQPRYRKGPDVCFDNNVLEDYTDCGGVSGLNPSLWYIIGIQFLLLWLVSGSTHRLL
CAv1.2, sequence (Q08289 whole entry partner): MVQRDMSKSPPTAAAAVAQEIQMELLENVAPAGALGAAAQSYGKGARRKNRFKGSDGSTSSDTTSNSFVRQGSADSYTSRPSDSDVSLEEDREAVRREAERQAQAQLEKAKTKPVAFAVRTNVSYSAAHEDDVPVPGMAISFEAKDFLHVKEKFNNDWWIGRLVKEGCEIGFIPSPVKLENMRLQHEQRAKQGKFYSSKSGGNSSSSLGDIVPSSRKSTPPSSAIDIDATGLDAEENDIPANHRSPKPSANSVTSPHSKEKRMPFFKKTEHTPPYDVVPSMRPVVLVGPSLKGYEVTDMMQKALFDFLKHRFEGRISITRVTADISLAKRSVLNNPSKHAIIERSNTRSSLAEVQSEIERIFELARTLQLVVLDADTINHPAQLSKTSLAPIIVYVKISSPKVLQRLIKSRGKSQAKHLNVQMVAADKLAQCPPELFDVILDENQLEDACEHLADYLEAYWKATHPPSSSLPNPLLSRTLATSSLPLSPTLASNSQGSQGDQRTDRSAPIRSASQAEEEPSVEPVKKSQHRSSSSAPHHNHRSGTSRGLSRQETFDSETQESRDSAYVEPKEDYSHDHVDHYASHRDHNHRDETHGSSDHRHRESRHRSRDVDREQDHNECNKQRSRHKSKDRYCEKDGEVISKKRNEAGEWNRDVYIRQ

As usually defined, the IC50 is the concentration needed to halve the response being measured. As for `CC(C)(C[C@H]1C[C@H](NC(=O)c2ccc(OCC(F)(F)F)nc2)C1)S(=O)(=O)c1cccc(C(F)(F)F)c1` [Compound 724], the IC50 in assay [1] is 1.41 µM; in assay [2] (setting [5]), 2.24 µM; in assay [2] (setting [6]), 0.83 µM; in assay [3] (setting [7]), 0.98 µM; in assay [3] (setting [8]), 0.09 µM; in assay [4] (setting [9]), 5.23 µM. The concentration for half-maximal inhibition (IC50) in assay [4] (setting [10]) was 1.21 µM. Further, in assay [2], the “CAv3.2 IC50 Ratio closed/inact.” value is given as 2.7. The “CAv2.2 IC50 Ratio closed/inact.” value in assay [3] was found to be 10.9. The “CAv1.2 IC50 Ratio closed/inact.” value in assay [4] is on record as 4.3.
Turning to `CC(C)([C@H]1C[C@@H](NS(=O)(=O)c2ccc(F)c(C(F)(F)F)c2)C1)S(=O)(=O)c1cccc(C(F)(F)F)c1` [Compound 628], the IC50 was 2.18 µM in assay [1]; 3.22 µM in assay [2] (setting [5]); 3.26 µM in assay [2] (setting [6]); 10 µM in assay [3] (setting [7]); 1.22 µM in assay [3] (setting [8]); at least 10 µM in assay [4] (setting [9]). Further, the IC50 in assay [4] (setting [10]) turned out to be 5.32 µM. Further, the “CAv3.2 IC50 Ratio closed/inact.” value in assay [2] stood at 1. Besides, the “CAv2.2 IC50 Ratio closed/inact.” value in assay [3] was determined as 8.2. For the same compound, the “CAv1.2 IC50 Ratio closed/inact.” value in assay [4] is 1.9.
As for `O=S(=O)(c1cccc(OC(F)(F)F)c1)[C@H]1C[C@@H](CNc2ccnc(C(F)(F)F)n2)C1` [Compound 650], the IC50 was determined as 7.29 µM in assay [1]; 2.27 µM in assay [2] (setting [5]); 2.69 µM in assay [2] (setting [6]); 9.9 µM in assay [3] (setting [7]); 1.88 µM in assay [3] (setting [8]); 9.1 µM in assay [4] (setting [9]). The IC50 in assay [4] (setting [10]) amounted to 3.51 µM. Further, the “CAv3.2 IC50 Ratio closed/inact.” value in assay [2] was 0.8. Moreover, the “CAv2.2 IC50 Ratio closed/inact.” value in assay [3] is on record as 5.3. Also, the “CAv1.2 IC50 Ratio closed/inact.” value in assay [4] came to 2.6.
Regarding `CC(C)([C@H]1C[C@H](NC(=O)c2ccc(C(F)(F)F)cc2)C1)S(=O)(=O)c1cccc(C(F)(F)F)c1` [Compound 677], the IC50 in assay [1] is 2.79 µM; in assay [2] (setting [5]), 1.78 µM; in assay [2] (setting [6]) it was 1.82 µM; in assay [3] (setting [7]) it was 2.86 µM; in assay [3] (setting [8]) it was 0.22 µM; in assay [4] (setting [9]), 6.35 µM. Moreover, the IC50 in assay [4] (setting [10]) worked out at 2.23 µM. The “CAv3.2 IC50 Ratio closed/inact.” value in assay [2] was determined as 1. The “CAv2.2 IC50 Ratio closed/inact.” value in assay [3] stood at 13. Also, the “CAv1.2 IC50 Ratio closed/inact.” value in assay [4] was 2.8.
For the compound `CC(C)([C@H]1C[C@@H](CNC(=O)c2ncc(C(F)(F)F)cn2)C1)S(=O)(=O)c1cccc(C(F)(F)F)c1` [Compound 684], the IC50 in assay [1] is 4.65 µM; in assay [2] (setting [5]), 4.67 µM; in assay [3] (setting [7]) it was 8.03 µM; in assay [3] (setting [8]), 0.65 µM; in assay [4] (setting [9]), at least 10 µM; in assay [4] (setting [10]), 5.35 µM. Also, the “CAv2.2 IC50 Ratio closed/inact.” value in assay [3] is 12.4. Besides, the “CAv1.2 IC50 Ratio closed/inact.” value in assay [4] stood at 1.9.
`CC(C)(C1CC(CNC(=O)c2cnc(C(F)(F)F)nc2)C1)S(=O)(=O)c1cccc(C(F)(F)F)c1` (centres unmarked) [Compound 616]: the half-maximal inhibitory concentration (IC50) in assay [1] is at least 10 µM; in assay [2] (setting [5]) it was at least 10 µM; in assay [2] (setting [6]), 6.4 µM; in assay [3] (setting [7]), 4.81 µM; in assay [3] (setting [8]), 0.61 µM; in assay [4] (setting [9]), at least 10 µM. Further, in assay [4] (setting [10]), the half-maximal inhibitory concentration (IC50) was 2.81 µM. The “CAv3.2 IC50 Ratio closed/inact.” value in assay [2] is 1.6. The “CAv2.2 IC50 Ratio closed/inact.” value in assay [3] is on record as 7.9. Besides, the “CAv1.2 IC50 Ratio closed/inact.” value in assay [4] is given as 3.6.
Regarding `CC(C)S(=O)(=O)c1cc(C(F)(F)F)cnc1C(=O)N[C@H]1C[C@@H](C(C)(C)S(=O)(=O)c2cc(F)cc(C(F)(F)F)c2)C1` [Compound 586], the IC50 in assay [1] was at least 10 µM; in assay [2] (setting [5]), at least 10 µM; in assay [2] (setting [6]), 10 µM; in assay [3] (setting [7]), 10 µM; in assay [3] (setting [8]), 0.48 µM; in assay [4] (setting [9]), at least 10 µM. Moreover, the IC50 in assay [4] (setting [10]) turned out to be 9.37 µM. Besides, the “CAv3.2 IC50 Ratio closed/inact.” value in assay [2] was 1. Further, the “CAv2.2 IC50 Ratio closed/inact.” value in assay [3] turned out to be 20.8. Also, in assay [4], the “CAv1.2 IC50 Ratio closed/inact.” value amounted to 1.1.
For `CC(C)([C@H]1C[C@@H](CNC(=O)c2ccnc(C(F)(F)F)n2)C1)S(=O)(=O)c1cccc(C(F)(F)F)c1` [Compound 683], the IC50 in assay [1] was 5.53 µM; in assay [2] (setting [5]), 5.45 µM; in assay [3] (setting [7]) it was 2.77 µM; in assay [3] (setting [8]), 0.26 µM; in assay [4] (setting [9]), at least 10 µM; in assay [4] (setting [10]), 6.11 µM. Moreover, the “CAv2.2 IC50 Ratio closed/inact.” value in assay [3] worked out at 10.7. The “CAv1.2 IC50 Ratio closed/inact.” value in assay [4] is 1.6.
In the case of `CC(C)(C[C@H]1C[C@H](NC(=O)c2ccc(C(F)(F)F)nc2)C1)S(=O)(=O)c1cccc(C(F)(F)F)c1` [Compound 723], the IC50 in assay [1] was 7.86 µM; in assay [2] (setting [5]), 6.22 µM; in assay [2] (setting [6]) it was 5.1 µM; in assay [3] (setting [7]), 3.14 µM; in assay [3] (setting [8]) it was 0.49 µM; in assay [4] (setting [9]), at least 10 µM. In assay [4] (setting [10]), the IC50 came to 4.89 µM. Moreover, the “CAv3.2 IC50 Ratio closed/inact.” value in assay [2] is reported as 1.2. Further, the “CAv2.2 IC50 Ratio closed/inact.” value in assay [3] was 6.4. For the same compound, in assay [4], the “CAv1.2 IC50 Ratio closed/inact.” value is 2.
In the case of `CC(C)S(=O)(=O)c1cc(C(F)(F)F)cnc1C(=O)N[C@H]1C[C@@H](C(C)(C)S(=O)(=O)c2cccc(OC(F)(F)F)c2)C1` [Compound 645], the 50% inhibitory concentration (IC50) was 4.69 µM in assay [1]; 9.97 µM in assay [2] (setting [5]); 6.08 µM in assay [2] (setting [6]); 8.49 µM in assay [3] (setting [7]); 0.24 µM in assay [3] (setting [8]); at least 10 µM in assay [4] (setting [9]). The IC50 in assay [4] (setting [10]) is 6.8 µM. For the same compound, the “CAv3.2 IC50 Ratio closed/inact.” value in assay [2] turned out to be 1.6. In addition, the “CAv2.2 IC50 Ratio closed/inact.” value in assay [3] came out at 35.4. Also, in assay [4], the “CAv1.2 IC50 Ratio closed/inact.” value is 1.5.
Take `CC(C)([C@H]1C[C@H](NS(=O)(=O)c2ccc(F)c(C(F)(F)F)c2)C1)S(=O)(=O)c1cccc(C(F)(F)F)c1` [Compound 667]: the IC50 is 2.5 µM in assay [1]; 2.7 µM in assay [2] (setting [5]); 2.16 µM in assay [2] (setting [6]); 10 µM in assay [3] (setting [7]); 1.08 µM in assay [3] (setting [8]); 7.76 µM in assay [4] (setting [9]). Further, in assay [4] (setting [10]), the half-maximal inhibitory concentration (IC50) was 2.56 µM. For the same compound, the “CAv3.2 IC50 Ratio closed/inact.” value in assay [2] is 1.3. Further, the “CAv2.2 IC50 Ratio closed/inact.” value in assay [3] is 9.3. In addition, the “CAv1.2 IC50 Ratio closed/inact.” value in assay [4] stood at 3.
For the compound `CC(C)([C@H]1C[C@H](NC(=O)c2ccc(C(F)(F)F)nc2)C1)S(=O)(=O)c1cccc(C(F)(F)F)c1` [Compound 675], the IC50 in assay [1] is at least 10 µM; in assay [2] (setting [5]), 7.76 µM; in assay [2] (setting [6]), 6.23 µM; in assay [3] (setting [7]), 8.63 µM; in assay [3] (setting [8]), 0.49 µM; in assay [4] (setting [9]), at least 10 µM. For the same compound, the IC50 in assay [4] (setting [10]) stood at 5.99 µM. In addition, the “CAv3.2 IC50 Ratio closed/inact.” value in assay [2] came to 1.2. The “CAv2.2 IC50 Ratio closed/inact.” value in assay [3] is on record as 17.6. Also, in assay [4], the “CAv1.2 IC50 Ratio closed/inact.” value is given as 1.7.
In the case of `CC(C)([C@H]1C[C@@H](NC(=O)c2ccc(Cl)cc2S(C)(=O)=O)C1)S(=O)(=O)c1cccc(C(F)(F)F)c1` [Compound 580], the IC50 is at least 10 µM in assay [1]; at least 10 µM in assay [2] (setting [5]); 10 µM in assay [2] (setting [6]); 10 µM in assay [3] (setting [7]); 0.26 µM in assay [3] (setting [8]); at least 10 µM in assay [4] (setting [9]). The IC50 in assay [4] (setting [10]) was at least 10 µM. For the same compound, the “CAv3.2 IC50 Ratio closed/inact.” value in assay [2] was 1. In addition, in assay [3], the “CAv2.2 IC50 Ratio closed/inact.” value is reported as 38.5.
